Measurements as given in PMC8887546, “Design and Synthesis of Brain Penetrant Glycopeptide Analogues of PACAP With Neuroprotective Potential for Traumatic Brain Injury and Parkinsonism” (Frontiers in drug discovery, 2022).

Key:
[1] = system: Sprague Dawley rats, 6-OHDA lesion; assay: Unbiased stereology of TH-positive neurons in SNc (study 2); type: in vivo, rat; details: more severe (40%) lesion
Protocol: Rats were treated with 2LS98Lac or saline (vehicle) as outlined in the Schemes in Figures 9A,B via intraperitoneal (i.p.) injection (15 mg/kg). All animals were made hemi-parkinsonian with unilateral, striatal 6-hydroxydopamine (Sigma Aldrich, St. Louis, MO) injections. After surgery, behavioral assessments were done at 2- and 4-weeks post-surgery. 24 h after the last test animals were either euthanized and whole brains were harvested for future biochemical analysis or perfused and brains collected for immunohistochemistry and stereological assessment of tyrosine hydroxylase-positive (TH+) cells remaining in the SNc. In study 1: n = 16 each group were included, and all underwent the behavioral analysis: n = 16, and for the stereology in the SNc, n = 8 each group was used. In study 2: n = 23 each group were included. […]
Stereological probes were applied using a Zeiss Imager M2 microscope (Carl Zeiss, Jena, Germany) equipped with StereoInvestigator software (MBF Bioscience, VT, United States) according to previously published methods ([Corenblum et al., 2015]; [Anandhan et al., 2021]). Using the optical fractionator probe, cells were counted under the ×63 oil immersion objective by a blinded observer. TH+ cells were counted in sections 480 μm apart using a grid size of 170 × 100 μm and counting frame size of 75 × 75 μm. […]

human VPAC1 receptor = molecular target: T1, human VPAC1 receptor (Homo sapiens, UniProt P32241); assay: cAMP stimulation in CHO cells expressing VPAC1; type: cell-based
T1 construct: expressed in transfected cells; host or cells: CHO cells (G418 selection)
T1 sequence (P32241 31-457): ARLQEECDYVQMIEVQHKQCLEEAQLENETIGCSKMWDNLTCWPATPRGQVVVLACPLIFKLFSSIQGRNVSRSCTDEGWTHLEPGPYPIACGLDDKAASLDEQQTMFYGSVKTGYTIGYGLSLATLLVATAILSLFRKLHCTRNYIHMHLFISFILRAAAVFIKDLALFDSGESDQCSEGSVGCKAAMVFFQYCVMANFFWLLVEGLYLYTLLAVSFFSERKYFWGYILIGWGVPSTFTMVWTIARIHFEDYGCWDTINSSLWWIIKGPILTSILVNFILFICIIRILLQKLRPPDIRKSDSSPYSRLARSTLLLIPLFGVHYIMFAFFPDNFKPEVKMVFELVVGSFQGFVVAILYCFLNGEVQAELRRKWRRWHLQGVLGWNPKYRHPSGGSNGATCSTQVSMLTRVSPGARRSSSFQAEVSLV

[2H]C([2H])([2H])C([2H])(C([2H])([2H])[2H])[C@]([2H])(NC(=O)[C@H](C)NC(=O)[C@H](C)NC(=O)[C@H](CC(C)C)NC(=O)[C@H](Cc1ccc(O)cc1)NC(=O)[C@H](CCCCN)NC(=O)[C@H](CCCCN)NC(=O)[C@@]([2H])(NC(=O)[C@H](C)NC(=O)[C@H](CC(C)C)NC(=O)[C@H](CCC(N)=O)NC(=O)[C@H](CCCCN)NC(=O)[C@H](CCCNC(=N)N)NC(=O)[C@H](Cc1ccc(O)cc1)NC(=O)[C@H](CCCNC(=N)N)NC(=O)[C@H](CO)NC(=O)[C@H](Cc1ccc(O)cc1)NC(=O)[C@H](CO)NC(=O)[C@H](CC(=O)O)NC(=O)[C@@H](NC(=O)[C@H](Cc1ccccc1)NC(=O)[C@@H](NC(=O)CNC(=O)[C@H](CC(=O)O)NC(=O)[C@H](CO)NC(=O)[C@@H](N)Cc1c[nH]cn1)[C@@H](C)CC)[C@@H](C)O)C([2H])(C([2H])([2H])[2H])C([2H])([2H])[2H])C(=O)N[C@@H](CC(C)C)C(=O)N[C@@H](CO[C@@H]1O[C@H](CO)[C@@H](O[C@@H]2O[C@H](CO)[C@H](O)[C@H](O)[C@H]2O)[C@H](O)[C@H]1O)C(N)=O [Compound 2LS98Lac]
Mean increase of nigral TH cells on the lesioned side vs vehicle ([1]; not significant (p = 0.2208)): 850 cells | Nigral TH-cell count on the lesioned side ([1]; three injections 15 mg/kg i.p., mean, vehicle 8,391): 9,244 cells | Emax (human VPAC1 receptor; CHO, read-out: VPAC1 Emax): 101% | Receptor selectivity ratio VPAC1/PAC1 (human VPAC1 receptor; ratio of cAMP EC50 values): 0.63 | EC50 (human VPAC1 receptor; read-out: VPAC1 EC50): 0.45 nM
